Data reported in patent US20250092065A1, “2-(INDAZOL-5-YL)-6-(PIPERIDIN-4-YL)-1,7-NAPHTHYRIDINE DERIVATIVES AND RELATED COMPOUNDS AS MODULATORS FOR SPLICING NUCLEIC ACIDS AND FOR THE TREATMENT OF PROLIFERATIVE DISEASES” (REMIX THERAPEUTICS INC., priority 2022, published 2025).
Read-outs that look alike come from different tables or passages of the source.

Columns and labels:
[1] = system: SMN2 mRNA; assay: RT-qPCR splicing assay, SMN2 mRNA; format: cell-based, human; conditions: Homo sapiens, canonical junction qPCR panel, Table 4; read-out: SMN2 IC50 (decrease in CJ mRNA levels)
Method in brief: (§1)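 A673 or K562 cells treated 24 h at 37 °C with an 11-point 3-fold dilution series (top 10 uM, DMSO ≤0.25%). Lysates went directly to one-step RT-qPCR quantifying canonical (CJ) and alternative-exon (AJ) junctions, normalized to GAPDH, GUSB or PPIA. Values from ΔΔCt versus DMSO, RQ = 2^(−ΔΔCt), expressed as percentage response.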

[2] = system: K562 cells; assay: Cell Titer Glo 2.0 cell viability (toxicity) assay, K562; conditions: 500 cells/well, 72 hours
[3] = system: MYB mRNA; assay: RT-qPCR splicing assay, MYB mRNA canonical (CJ) and alternative (AJ) junction; format: cell-based, human; conditions: Homo sapiens; for AC50: MYB alternative junction mRNA, read-out: MYB AJ (increase in AJ mRNA, AC50)
Method in brief: as §1

[4] = MYB canonical junction mRNA, RT-qPCR, read-out: MYB CJ (decrease in CJ mRNA levels, IC50)
[5] = canonical junction qPCR panel, Table 4, read-out: MYB IC50 (decrease in CJ mRNA levels)

Compound	IC50 [1] [nM]	IC50 [3, 4] [nM]	IC50 [3, 5] [nM]	Effect of Exemplary Compounds on Cell Viability, K562 [2]	AC50 ([3]; RT-qPCR) [nM]
Cc1c(O)c(-c2nc(C(=O)O)c3cc(N4CCNCC4)ccc3n2)cc2cn(C)nc12 [Compound 524, 2-(6-hydroxy-2,7-dimethylindazol-5-yl)-6-(piperazin-1-yl) quinazoline-4-carboxylic acid]	1000 to 10000	> 10000	> 10000	D (D represents greater than 10 μM in K562 cells)	> 10000
CNC(=O)c1nc(-c2cc3cn(C)nc3cc2O)nc2ccc(N3CCN[C@@H](C)C3)cc12 [Compound 530, 2-(6-hydroxy-2-methylindazol-5-yl)-N-methyl-6-[(3S)-3-methylpiperazin-1-yl]quinazoline-4-carboxamide]	< 100	< 100	< 100	A (A represents <100 nM)	< 100
CNC(=O)c1nc(-c2cc3cn(C)nc3cc2O)nc2ccc(N3C[C@@H](C)N[C@@H](C)C3)cc12 [Compound 531, 6-[(3R,5S)-3,5-dimethylpiperazin-1-yl]-2-(6-hydroxy-2-methylindazol-5-yl)-N-methylquinazoline-4-carboxamide]	< 100	< 100	< 100	A (A represents <100 nM)	< 100
CNC(=O)c1nc(-c2cc3cn(C)nc3c(C)c2O)nc2ccc(N3CCNC4(CC4)C3)cc12 [Compound 532, 6-{4,7-diazaspiro[2.5]octan-7-yl}-2-(6-hydroxy-2,7-dimethylindazol-5-yl)-N-methylquinazoline-4-carboxamide]	< 100	< 100	< 100	B (B represents 100-1000 nM)	< 100

More lines, main results first:

IC50 [1] [nM]	IC50 [3, 4] [nM]	IC50 [3, 5] [nM]	Compound	Effect of Exemplary Compounds on Cell Viability, K562 [2]	AC50 ([3]; RT-qPCR) [nM]
< 100	< 100	< 100	Cc1c(O)c(-c2ncc3cc(N4C[C@@H](C)N[C@@H](C)C4)ccc3n2)cc2cn(C)nc12 [Compound 525, 5-{6-[(3R,5S)-3,5-dimethylpiperazin-1-yl]quinazolin-2-yl}-2,7-dimethylindazol-6-ol]	B (B represents 100-1000 nM)	< 100
< 100	< 100	< 100	Cc1c(O)c(-c2ncc3nc(N4C[C@@H](C)N[C@@H](C)C4)ccc3n2)cc2cn(C)nc12 [Compound 526, 5-{6-[(3R,5S)-3,5-dimethylpiperazin-1-yl]pyrido[3,2-d]pyrimidin-2-yl}-2,7-dimethylindazol-6-ol]	B (B represents 100-1000 nM)	100 to 1000
< 100	< 100	< 100	CNC(=O)c1nc(-c2cc3cn(C)nc3c(F)c2O)nc2ccc(N3C[C@@H](C)N[C@@H](C)C3)cc12 [Compound 527, 6-[(3R,5S)-3,5-dimethylpiperazin-1-yl]-2-(7-fluoro-6-hydroxy-2-methylindazol-5-yl)-N-methylquinazoline-4-carboxamide]	A (A represents <100 nM)	< 100
< 100	< 100	< 100	CNC(=O)c1nc(-c2cc3cn(C)nc3c(F)c2O)nc2ccc(N3CCC(N(C)C)CC3)cc12 [Compound 528, 6-[4-(dimethylamino)piperidin-1-yl]-2-(7-fluoro-6-hydroxy-2-methylindazol-5-yl)-N-methylquinazoline-4-carboxamide]	A (A represents <100 nM)	< 100
< 100	< 100	< 100	CNC(=O)c1nc(-c2cc3cn(C)nc3c(F)c2O)nc2ccc(N3CCN[C@@H](C)C3)cc12 [Compound 529, 2-(7-fluoro-6-hydroxy-2-methylindazol-5-yl)-N-methyl-6-[(3S)-3-methylpiperazin-1-yl]quinazoline-4-carboxamide]	A (A represents <100 nM)	< 100
